ChEMBL document CHEMBL5620413, “Novel pterostilbene derivatives ameliorate heart failure by reducing oxidative stress and inflammation through regulating Nrf2/NF-κB signaling pathway” (Eur J Med Chem, 2023)
Active and inactive are the calls of the source.

Legend:
Mus musculus [1] = experiment: Inhibition of DOX-induced cardiac ROS generation in cardiac dysfunction C57BL/6J mouse model at 7 mg/kg, ip administered daily for 4 weeks by DHE staining based analysis; assay type: functional, organism-based
RAW264.7 [2] = experiment: Inhibition of ROS generation in mouse RAW264.7 cells preincubated for 1 hr followed by DOX treatment for 12 hrs by DCFH-DA dye based analysis; assay type: functional, cell-based; settings: dose <= 10.0 µM, time 13.0 hrs
Mus musculus [3] = experiment: Antiinflammatory activity in cardiac dysfunction C57BL/6J mouse model assessed as decrease in DOX-induced NF-kappaB expression at 7 mg/kg, ip administered daily for 4 weeks by Western blot analysis; assay type: functional, organism-based
Mus musculus [4] = experiment: Protection against cardiac dysfunction C57BL/6J mouse model assessed as decrease in DOX-induced serum ALT level at 7 mg/kg, ip administered daily for 4 weeks; assay type: functional, organism-based
H9c2 [5] = experiment: Inhibition of ROS generation in rat H9c2 cells preincubated for 1 hr followed by DOX treatment for 12 hrs by DCFH-DA dye based analysis; assay type: functional, cell-based; settings: dose <= 10.0 µM, time 13.0 hrs
RAW264.7 [6] = experiment: Inhibition of ROS generation in mouse RAW264.7 cells assessed as increase in DOX-reduced CAT expression upto 10 uM preincubated for 1 hr followed by DOX treatment for 12 hrs by Western blot analysis; assay type: functional, cell-based; settings: time 13.0 hrs
RAW264.7 [7] = experiment: Antiinflammatory activity in mouse RAW264.7 cells assessed as decrease in LPS-induced iNOS expression preincubated for 1 hr followed by LPS treatment for 24 hrs by Western blot analysis; assay type: functional, cell-based; settings: dose <= 10.0 µM, time 25.0 hrs
RAW264.7 [8] = experiment: Inhibition of ROS generation in mouse RAW264.7 cells assessed as increase in LPS-reduced Nrf2 expression upto 10 uM preincubated for 1 hr followed by LPS treatment for 24 hrs by Western blot analysis; assay type: functional, cell-based; settings: time 25.0 hrs
Mus musculus [9] = experiment: Protection against cardiac dysfunction C57BL/6J mouse model assessed as increase in DOX-reduced cardiac SOD1 expression at 7 mg/kg, ip administered daily for 4 weeks by Western blot analysis; assay type: functional, organism-based
Mus musculus [10] = experiment: Protection against cardiac dysfunction C57BL/6J mouse model assessed as decrease in DOX-induced myocardial fibrosis at 7 mg/kg, ip administered daily for 4 weeks by Sirius Red staining based analysis; assay type: functional, organism-based
RAW264.7 [11] = experiment: Antiinflammatory activity against mouse RAW264.7 cells assessed as decrease in LPS-induced IL-6 expression upto 10 uM preincubated for 1 hr followed by LPS treatment for 24 hrs by Western blot analysis; assay type: functional, cell-based; settings: time 25.0 hrs
H9c2 [12] = experiment: Inhibition of ROS generation in rat H9c2 cells preincubated for 1 hr followed by LPS treatment for 24 hrs by DCFH-DA dye based analysis; assay type: functional, cell-based; settings: dose <= 10.0 µM, time 25.0 hrs
RAW264.7 [13] = experiment: Inhibition of ROS generation in mouse RAW264.7 cells assessed as increase in DOX-reduced GPX1 expression upto 10 uM preincubated for 1 hr followed by DOX treatment for 12 hrs by Western blot analysis; assay type: functional, cell-based; settings: time 13.0 hrs
Mus musculus [14] = experiment: Protection against cardiac dysfunction C57BL/6J mouse model assessed as increase in DOX-reduced cardiac SOD2 expression at 7 mg/kg, ip administered daily for 4 weeks by Western blot analysis; assay type: functional, organism-based
Mus musculus [15] = experiment: Protection against cardiac dysfunction C57BL/6J mouse model assessed as increase in DOX-reduced cardiac CAT expression at 7 mg/kg, ip administered daily for 4 weeks by Western blot analysis; assay type: functional, organism-based
H9c2 [16] = experiment: Antiinflammatory activity against rat H9c2 cells assessed as decrease in DOX-induced IL-6 expression upto 10 uM preincubated for 1 hr followed by DOX treatment for 12 hrs by Western blot analysis; assay type: functional, cell-based; settings: time 13.0 hrs
H9c2 [17] = experiment: Antiinflammatory activity against rat H9c2 cells assessed as decrease in DOX-induced TNF-alpha expression upto 10 uM preincubated for 1 hr followed by DOX treatment for 12 hrs by Western blot analysis; assay type: functional, cell-based; settings: time 13.0 hrs
Mus musculus [18] = experiment: Protection against cardiac dysfunction C57BL/6J mouse model assessed as decrease in DOX-induced accumulation of inflammatory cells at 7 mg/kg, ip administered daily for 4 weeks by H and E staining based analysis; assay type: functional, organism-based
RAW264.7 [19] = experiment: Antiinflammatory activity against mouse RAW264.7 cells assessed as decrease in LPS-induced IL-1beta mRNA expression upto 10 uM preincubated for 1 hr followed by LPS treatment for 24 hrs by qRT-PCR analysis; assay type: functional, cell-based; settings: time 25.0 hrs
Mus musculus [20] = experiment: Antiinflammatory activity in cardiac dysfunction C57BL/6J mouse model assessed as decrease in DOX-induced IL-6 expression at 7 mg/kg, ip administered daily for 4 weeks by Western blot analysis; assay type: functional, organism-based
H9c2 [21] = experiment: Inhibition of ROS generation in rat H9c2 cells assessed as increase in DOX-reduced CAT expression upto 10 uM preincubated for 1 hr followed by DOX treatment for 12 hrs by Western blot analysis; assay type: functional, cell-based; settings: time 13.0 hrs

CCCCOc1ccc(/C=C/c2cc(OC)cc(OC)c2C2CC(C)=NN2C(C)=O)cc1 (stereo unspecified)
active: inhibition (Mus musculus [1]) | inhibition (RAW264.7 [2]) Dose-Dependent Effect | Activity (Mus musculus [3]) | Activity (Mus musculus [4]) | inhibition (H9c2 [5]) Dose-Dependent Effect | inhibition (RAW264.7 [6]) | Activity (RAW264.7 [7]) Dose-Dependent Effect | inhibition (RAW264.7 [8]) | Activity (Mus musculus [9]) | Activity (Mus musculus [10]) | Activity (RAW264.7 [11]) | inhibition (H9c2 [12]) Dose-Dependent Effect | inhibition (RAW264.7 [13]) | Activity (Mus musculus [14]) | Activity (Mus musculus [15]) | Activity (H9c2 [16]) | Activity (H9c2 [17]) | Activity (Mus musculus [18]) | Activity (RAW264.7 [19]) | Activity (Mus musculus [20]) | inhibition (H9c2 [21])
